According to patent publication US12545685B2 (Daiichi Sankyo Company, Limited, priority 2011, dated 2026):

Columns and labels:
[1] = target: T1, Mdm2/p53 binding (GST-Mdm2 / His-p53) (Homo sapiens, UniProt Q00987, L33E); assay: Mdm2/p53 binding assay (HTRF, His-p53 and GST-Mdm2); conditions: His-p53 (aa 1-132) and GST-Mdm2 (aa 25-108, L33E) 6.25 nM each; 25°C, 1 hour; values given as ranges
T1 construct: Mdm2 partial protein having Mdm2 amino acids at positions 25 to 108
Outline: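 Binding was detected by HTRF (ex 320 nm, em 620/665 nm) after 1 h at 25 °C, using Eu-cryptate anti-GST and XL665 anti-His antibodies. The protein pair was GST-Mdm2 (residues 25–108, L33E) with His-p53 (residues 1–132), each 6.25 nM in the protein dilution. T/C used no-compound control and no-p53 background, and IC50 came from sigmoid fitting.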

[2] = test system: human lung cancer-derived cell line NCI-H460 having wild-type p53; assay: Cell growth inhibition assay (MTT); format: cell-based; conditions: 72 h, NCI-H460 cells, 3 days culture, values given as ranges, read-out: 50% growth inhibition concentration (GI50 value)
Method: A cell growth inhibition assay was conducted using a human lung cancer-derived cell line NCI-H460 having wild-type p53.
NCI-H460 cells were suspended in a medium (RPMI1640 medium containing 10% fetal bovine serum) and the suspension was added in an amount of 500 cells/150 μl/well to a 96-well plate. A test compound was dissolved in DMSO and this solution was diluted with medium to prepare a sample solution (DMSO concentration: 1% or lower). On the next day, medium nonsupplemented with the test compound, or the sample solution, was added in an amount of 50 μl/well. Cells were then cultured at 37° ° C. for 3 days in a 5% CO2 atmosphere.
An MTT assay was conducted immediately after the nonsupplemented medium or the sample solution was added. Another MTT assay was conducted after culturing the cells for 3 days. The MIT assays were conducted as shown below.
A 5 mg/ml MTT (3-(4,5-dimethylthiazol-2-yl)-2,5-diphenyltetrazolium bromide, Sigma-Aldrich Co., M-2128) solution was prepared using a phosphate buffer solution (Dulbecco's Phosphate-buffered Saline). This MIT solution was added in an amount of 20 μl/well. Then the plate was cultured at 37° ° C. for 4 hours in a 5% CO2 atmosphere. The plate was centrifuged at 1200 rpm for 5 minutes and then the culture supernatant was removed by aspiration using a dispenser. DMSO was added in an amount of 150 μl/well to dissolve generated formazan. The plate was stirred using a plate mixer for uniform color development from each well. The absorbance of each well was measured at OD 540 nm and at a reference OD (660 nm) using a plate reader (SpectraMax PLUS384, Molecular Devices, CA, USA).
The OD value measured on the day of adding the sample solution was defined as S. The OD value measured three days after addition of the sample solution was defined as T. The OD value measured three days after addition of the DMSO dilution was defined as C. T/C (%) was determined at each concentration according to the formula shown below in order to prepare a dose response curve, from which 50% growth inhibition concentration (GI50 value) was calculated.

T1 sequence (Q00987 25-108 L33E): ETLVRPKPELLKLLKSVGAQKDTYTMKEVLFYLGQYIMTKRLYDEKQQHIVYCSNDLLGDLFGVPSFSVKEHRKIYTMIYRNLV

Compound: CC1(C)CCC2(CC1)N[C@@H](C(=O)N[C@H]1CC[C@H](O)CC1)[C@H](c1cccc(Cl)c1F)[C@]21C(=O)Nc2cc(Cl)ccc21 (relative stereo) [Example 1, (3′R, 4′S,5′R)-6″-chloro-4′-(3-chloro-2-fluorophenyl)-N-(trans-4-hydroxycyclohexyl)-4,4-dimethyl-2″-oxo-1″,2″-dihydrodispiro[cyclohexane-1,2′-pyrrolidine-3′,3″-indole]-5′-carboxamide]
- IC50 [1]: 0.05 to 0.1 µM
- GI50 [2]: 0.1 to 0.5 µM

Compound: CC1(C)CCC2(CC1)N[C@@H](C(=O)N[C@H]1CC[C@H](CO)CC1)[C@H](c1cccc(Cl)c1F)[C@]21C(=O)Nc2nc(Cl)ccc21 (relative stereo) [Example 2, (3′R, 4′S,5′R)-6″-chloro-4′-(3-chloro-2-fluorophenyl)-N-[trans-4-(hydroxymethyl)cyclohexyl]-4,4-dimethyl-2″-oxo-1″,2″-dihydrodispiro[cyclohexane-1,2′-pyrrolidine-3′,3″-pyrrolo[2,3-b]pyridine]-5′-carboxamide]
- IC50 [1]: 0.05 to 0.1 µM
- GI50 [2]: 1 to 5 µM

Compound: O=C(N[C@H]1CC[C@H](O)CC1)[C@@H]1NC2(CCCCC2)[C@@]2(C(=O)Nc3cc(Cl)ccc32)[C@H]1c1cccc(Cl)c1F (relative stereo) [Example 4, (3′R, 4′S,5′R)-6″-chloro-4′-(3-chloro-2-fluorophenyl)-N-(trans-4-hydroxycyclohexyl)-2″-oxo-1″,2″-dihydrodispiro[cyclohexane-1,2′-pyrrolidine-3′,3″-indole]-5′-carboxamide]
- IC50 [1]: 0.1 to 0.5 µM
- GI50 [2]: 1 to 5 µM

Compound: CC1(C)CCC2(CC1)N[C@@H](C(=O)N[C@H]1CC[C@H](c3nnco3)CC1)[C@H](c1cccc(Cl)c1F)[C@]21C(=O)Nc2nc(Cl)ccc21 (relative stereo) [Example 5, (3′R, 4′S,5′R)-6″-chloro-4′-(3-chloro-2-fluorophenyl)-4,4-dimethyl-N-[trans-4-(1,3,4-oxadiazol-2-yl)cyclohexyl]-2″-oxo-1″,2″-dihydrodispiro[cyclohexane-1,2′-pyrrolidine-3′,3″-pyrrolo[2,3-b]pyridine]-5′-carboxamide]
- IC50 [1]: 0.05 to 0.1 µM
- GI50 [2]: 1 to 5 µM

Compound: CC1(C)CCC2(CC1)N[C@@H](C(=O)N[C@H]1CC[C@H](O)CC1)[C@H](c1cccc(Cl)c1F)[C@]21C(=O)Nc2nc(Cl)ccc21 (relative stereo) [Example 6, (3′R, 4′S,5′R)-6″-chloro-4′-(3-chloro-2-fluorophenyl)-N-(trans-4-hydroxycyclohexyl)-4,4-dimethyl-2″-oxo-1″,2″-dihydrodispiro[cyclohexane-1,2′-pyrrolidine-3′,3″-pyrrolo[2,3-b]pyridine]-5′-carboxamide]
- IC50 [1]: 0.001 to 0.05 µM
- GI50 [2]: 1 to 5 µM

Compound: CC1(C)CCC2(CC1)N[C@@H](C(=O)N[C@H]1CC[C@H](O)CC1)[C@H](c1ccnc(Cl)c1F)[C@]21C(=O)Nc2cc(Cl)ccc21 (relative stereo) [Example 16, (3′R, 4′S,5′R)-6″-chloro-4′-(2-chloro-3-fluoropyridin-4-yl)-N-(trans-4-hydroxycyclohexyl)-4,4-dimethyl-2″-oxo-1″,2″-dihydrodispiro[cyclohexane-1,2′-pyrrolidine-3′,3″-indole]-5′-carboxamide]
- IC50 [1]: 0.001 to 0.05 µM
- GI50 [2]: 0.1 to 0.5 µM

Compound: CC1(C)CCC2(CC1)N[C@@H](C(=O)N[C@H]1CC[C@H](c3nnco3)CC1)[C@H](c1ccnc(Cl)c1F)[C@]21C(=O)Nc2cc(Cl)ccc21 (relative stereo) [Example 18, (3′R, 4′S,5′R)-6″-chloro-4′-(2-chloro-3-fluoropyridin-4-yl)-4,4-dimethyl-N-[trans-4-(1,3,4-oxadiazol-2-yl)cyclohexyl]-2″-oxo-1″,2″-dihydrodispiro[cyclohexane-1,2′-pyrrolidine-3′,3″-indole]-5′-carboxamide]
- IC50 [1]: 0.05 to 0.1 µM
- GI50 [2]: 0.1 to 0.5 µM

Compound: CC1(C)CCC2(CC1)N[C@@H](C(=O)N[C@H]1CC[C@H](NC(=O)CO)CC1)[C@H](c1cccc(Cl)c1F)[C@]21C(=O)Nc2cc(Cl)ccc21 (relative stereo) [Example 24, (3′R, 4′S,5′R)-6″-chloro-4′-(3-chloro-2-fluorophenyl)-N-{trans-4-[(hydroxyacetyl)amino]cyclohexyl}-4,4-dimethyl-2″-oxo-1″,2″-dihydrodispiro[cyclohexane-1,2′-pyrrolidine-3′,3″-indole]-5′-carboxamide]
- IC50 [1]: 0.05 to 0.1 µM
- GI50 [2]: 0.1 to 0.5 µM

Compound: CC1(C)CCC2(CC1)N[C@@H](C(=O)N[C@H]1CC[C@H](c3nnco3)CC1)[C@H](c1ccnc(Cl)c1F)[C@]21C(=O)Nc2nc(Cl)ccc21 (relative stereo) [Example 26, (3′R, 4′S,5′R)-6″-chloro-4′-(2-chloro-3-fluoropyridin-4-yl)-4,4-dimethyl-N-[trans-4-(1,3,4-oxadiazol-2-yl)cyclohexyl]-2″-oxo-1″,2″-dihydrodispiro[cyclohexane-1,2′-pyrrolidine-3′,3″-pyrrolo[2,3-b]pyridine]-5′-carboxamide]
- IC50 [1]: 0.05 to 0.1 µM
- GI50 [2]: 0.5 to 1 µM

Compound: CC1(C)CCC2(CC1)N[C@@H](C(=O)N[C@H]1CC[C@H](c3nnc[nH]3)CC1)[C@H](c1ccnc(Cl)c1F)[C@]21C(=O)Nc2cc(Cl)ccc21 (relative stereo) [Example 32, (3′R, 4′S,5′R)-6″-chloro-4′-(2-chloro-3-fluoropyridin-4-yl)-4,4-dimethyl-2″-oxo-N-[trans-4-(4H-1,2,4-triazol-3-yl)cyclohexyl]-1″,2″-dihydrodispiro[cyclohexane-1,2′-pyrrolidine-3′,3″-indole]-5′-carboxamide]
- IC50 [1]: 0.05 to 0.1 µM
- GI50 [2]: 0.1 to 0.5 µM

Compound: CC(O)[C@@H]1CC[C@@H](NC(=O)[C@@H]2NC3(CCC(C)(C)CC3)[C@@]3(C(=O)Nc4cc(Cl)ccc43)C2c2ccnc(Cl)c2)CO1 (single isomer, unassigned) [Example 77]
- IC50 [1]: 0.001 to 0.05 µM
- GI50 [2]: 0.1 to 0.5 µM

Compound: CC(O)[C@@H]1CC[C@@H](NC(=O)[C@@H]2NC3(CCC(C)(C)CC3)[C@@]3(C(=O)Nc4cc(Cl)ccc43)[C@H]2c2ccnc(Cl)c2F)CO1 (single isomer, unassigned) [Example 93]
- IC50 [1]: 0.05 to 0.1 µM
- GI50 [2]: 0.1 to 0.5 µM

Compound: CC1(C)CCC2(CC1)N[C@@H](C(=O)N[C@@H]1CC[C@@H](CO)OC1)[C@H](c1cccc(Cl)c1F)[C@]21C(=O)Nc2nc(Cl)ccc21 [Example 3, (3′R, 4′S,5′R)-6″-chloro-4′-(3-chloro-2-fluorophenyl)-N-[(3R,6S)-6-(hydroxymethyl)tetrahydro-2H-pyran-3-yl]-4,4-dimethyl-2″-oxo-1″,2″-dihydrodispiro[cyclohexane-1,2′-pyrrolidine-3′,3″-pyrrolo[2,3-b]pyridine]-5′-carboxamide]
- IC50 [1]: 0.001 to 0.05 µM
- GI50 [2]: 0.5 to 1 µM

Compound: CC1(C)CCC2(CC1)N[C@@H](C(=O)N[C@@H]1CC[C@@H](CO)OC1)[C@H](c1cccc(Cl)c1F)[C@]21C(=O)Nc2cc(Cl)ccc21 [Example 8, (3′R, 4′S,5′R)-6″-chloro-4′-(3-chloro-2-fluorophenyl)-N-[(3R,6S)-6-(hydroxymethyl)tetrahydro-2H-pyran-3-yl]-4,4-dimethyl-2″-oxo-1″,2″-dihydrodispiro[cyclohexane-1,2′-pyrrolidine-3′,3″-indole]-5′-carboxamide]
- IC50 [1]: 0.001 to 0.05 µM
- GI50 [2]: 0.1 to 0.5 µM

Compound: CC1(C)CCC2(CC1)N[C@@H](C(=O)N[C@@H]1CC[C@@H](C(C)(C)O)OC1)[C@H](c1cccc(Cl)c1F)[C@]21C(=O)Nc2nc(Cl)ccc21 [Example 11, (3′R, 4′S,5′R)-6″-chloro-4′-(3-chloro-2-fluorophenyl)-N-[(3R,6S)-6-(1-hydroxy-1-methylethyl)tetrahydro-2H-pyran-3-yl]-4,4-dimethyl-2″-oxo-1″,2″-dihydrodispiro[cyclohexane-1,2′-pyrrolidine-3′,3″-pyrrolo[2,3-b]pyridine]-5′-carboxamide]
- IC50 [1]: 0.001 to 0.05 µM
- GI50 [2]: 0.5 to 1 µM

Compound: CC1(C)CCC2(CC1)N[C@@H](C(=O)N[C@@H]1CC[C@@H](C(N)=O)OC1)[C@H](c1ccnc(Cl)c1F)[C@]21C(=O)Nc2cc(Cl)ccc21 [Example 70, (3′R, 4′S,5′R)—N-[(3R,6S)-6-carbamoyltetrahydro-2H-pyran-3-yl]-6″-chloro-4′-(2-chloro-3-fluoropyridin-4-yl)-4,4-dimethyl-2″-oxo-1″,2″-dihydrodispiro[cyclohexane-1,2′-pyrrolidine-3′,3″-indole]-5′-carboxamide]
- GI50 [2]: < 0.1 µM
